Results published in ChEMBL document CHEMBL1149855, “Dihydrobenzo[c]phenanthridine alkaloids from stem bark of Zanthoxylum nitidum” (J Nat Prod, 2008).
The source made the active and inactive calls.

What was measured:
Format in all cases: functional, cell-based
MCF7 = assay: Cytotoxicity against human MCF7 cells up to 29.2 ug/mL after 72 hrs by MTS reduction assay
NCI-H460 = assay: Cytotoxicity against human NCI-H460 cells up to 29.2 ug/mL after 72 hrs by MTS reduction assay
SF-268 = assay: Cytotoxicity against human SF268 cells up to 29.2 ug/mL after 72 hrs by MTS reduction assay

Measured: Activity

COc1ccc2c(c1OC)[C@@H](CC1=C[C@@H]3[C@@H](CC1)[C@](C)(OC)CC[C@H]3C(C)C)N(C)c1c-2ccc2cc3c(cc12)OCO3
inactive: all assays above

COc1ccc2c(c1OC)[C@H](CC1=C[C@H]3[C@H](C(C)C)CC[C@](C)(OC)[C@H]3CC1)N(C)c1c-2ccc2cc3c(cc12)OCO3
inactive: all assays above

COc1ccc2c(c1OC)[C@@H](CC1=C[C@H]3[C@H](C(C)C)CC[C@](C)(OC)[C@H]3CC1)N(C)c1c-2ccc2cc3c(cc12)OCO3
inactive: all assays above

COc1ccc2c(c1OC)[C@H](CC1=C[C@@H]3[C@@H](CC1)[C@](C)(OC)CC[C@H]3C(C)C)N(C)c1c-2ccc2cc3c(cc12)OCO3
inactive: all assays above

COc1ccc2c(c1OC)[C@@H](CC1=C[C@@H]3[C@@H](CC1)[C@@](C)(OC)CC[C@H]3C(C)C)N(C)c1c-2ccc2cc3c(cc12)OCO3
inactive: all assays above
